According to patent publication US20230382923A1, “FUSED TETRACYCLIC QUINAZOLINE DERIVATIVES AS INHIBITORS OF ERBB2” (EnLiven Therapeutics, Inc., priority 2021, published 2023):
pIC50: −log10 of the molar value.

Experiments:
[1] = target: phosphorylated EGFR (pEGFR) (Homo sapiens (Human), UniProt P00533); test: Detection of phosphorylated EGFR (pEGFR) by AlphaLISA in A431 cells; assay type: cell-based; conditions: A431 cells (10% FBS), 4 hours incubation, EGF 30 ng/mL for 10 minutes
Procedure: […] were performed to measure phosphorylated EGFR levels using A431 cells (10% FBS). A431 (1.0*10^4cells/40 μl/well) cells were seeded in 384 well. Compounds were dissolved in DMSO, serially diluted in DMSO and then were added, mixed, and incubated for 4 hours at 37° C., […]. Following the 4-hours incubation, cells were stimulated for 10 minutes with EGF (Invitrogen, cat #PHG0311) at a final concentration of 30 ng/mL in the incubator. The media was aspirated and cells were lysed in 10 μL lysis buffer with protease and phosphatase inhibitors (PerkinElmer, cat #ALSU-PEGFR-A50K). The plates were placed on a shaker for 5 minutes and then incubated for 30 min at 4° C. for complete lysis. The lysate was transferred to an Optiplate (Perkin Elmer, cat #6007290).
Acceptor mix (PerkinElmer, cat #ALSU-PEGFR-A50K) was prepared just before use and 5 μL was dispensed to all the wells, followed by a 1.5-2 h incubation at room temperature in dark. The donor mix (PerkinElmer, cat #ALSU-PEGFR-A50K) was prepared under low light conditions prior to use and 5 μl of donor mix was added to all the wells under subdued lighting or green filters. The plates were placed on a shaker for 5 min, sealed, and incubated overnight at room temperature in dark. Plates were read on the Envision (PerkinElmer) using standard AlphaLISA settings.
The percentage of inhibition on EGFR phosphorylation was calculated following equation: % Inhibition=100×(LumHC−LumSample)/(LumHC−LumLC). The low and high controls (LC/HC) are generated from lysate from wells with cells treated with DMSO or […] Staurosporine (BioAustralis, cat #BIA-S1086), […]. IC50 values were calculated by fitting the Curve using XLfit (v5.3.1.3), equation 201: Y=Bottom+(Top−Bottom)/(1+10^((LogIC50−X)*HillSlope)).

[2] = target: phosphorylated ERBB2 (pERBB2) (Homo sapiens (Human), UniProt P04626); test: Detection of phosphorylated ERBB2 (pERBB2) by ELISA in BT-474 cells; assay type: cell-based; conditions: four hours incubation with compound
phosphorylated ERBB2 (pERBB2), sequence (P04626 23-1255): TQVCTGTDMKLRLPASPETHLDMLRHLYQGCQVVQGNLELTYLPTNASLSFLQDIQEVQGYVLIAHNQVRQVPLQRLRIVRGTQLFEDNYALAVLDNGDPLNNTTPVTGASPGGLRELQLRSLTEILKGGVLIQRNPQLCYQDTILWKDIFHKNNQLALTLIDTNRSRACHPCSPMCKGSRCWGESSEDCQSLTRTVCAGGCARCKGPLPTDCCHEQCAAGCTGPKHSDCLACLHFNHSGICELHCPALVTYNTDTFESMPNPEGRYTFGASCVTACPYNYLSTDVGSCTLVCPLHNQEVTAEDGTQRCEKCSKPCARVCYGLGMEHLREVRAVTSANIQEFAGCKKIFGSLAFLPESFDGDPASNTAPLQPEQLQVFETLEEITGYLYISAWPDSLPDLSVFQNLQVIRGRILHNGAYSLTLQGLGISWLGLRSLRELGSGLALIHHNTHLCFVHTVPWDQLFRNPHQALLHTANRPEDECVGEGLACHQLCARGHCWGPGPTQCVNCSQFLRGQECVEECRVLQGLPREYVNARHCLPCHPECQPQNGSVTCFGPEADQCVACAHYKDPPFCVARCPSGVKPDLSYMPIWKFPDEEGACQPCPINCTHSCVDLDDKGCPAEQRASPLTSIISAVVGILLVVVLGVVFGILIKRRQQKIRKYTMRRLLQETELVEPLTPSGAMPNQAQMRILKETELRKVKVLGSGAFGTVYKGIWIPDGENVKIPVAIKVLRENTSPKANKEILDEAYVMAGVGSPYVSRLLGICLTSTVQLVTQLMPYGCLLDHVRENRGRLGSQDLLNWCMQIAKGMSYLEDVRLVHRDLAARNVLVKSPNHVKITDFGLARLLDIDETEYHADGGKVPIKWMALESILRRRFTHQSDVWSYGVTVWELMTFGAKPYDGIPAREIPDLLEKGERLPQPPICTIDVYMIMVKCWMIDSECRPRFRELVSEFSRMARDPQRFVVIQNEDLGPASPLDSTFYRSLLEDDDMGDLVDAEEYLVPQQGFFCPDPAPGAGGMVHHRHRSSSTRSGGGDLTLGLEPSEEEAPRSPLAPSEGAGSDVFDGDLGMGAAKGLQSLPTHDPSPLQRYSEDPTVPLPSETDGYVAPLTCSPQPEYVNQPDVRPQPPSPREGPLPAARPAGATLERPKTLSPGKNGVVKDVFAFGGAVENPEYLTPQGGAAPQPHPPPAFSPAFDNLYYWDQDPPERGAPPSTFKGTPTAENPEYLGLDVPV
Procedure: BT-474 cells were seeded into a 96-well at 2.0*10^4cells/100 μl/well. Compounds were dissolved and serially diluted in DMSO. The compounds were then were added, mixed, and incubated for four hours at 37° C., 5% CO2. […] Following the four hour incubation with compounds, cell lysates were prepared. Plates were centrifuged for 5 min at 3000 RPM, and supernatant was removed from each well. Cells were washed 3 times by resuspension in 150 μl PBS, followed by centrifugation and removal of the supernatant, as above. 100 μl of cell lysis buffer (Boston BioProducts, cat #BP-115D) supplied with 1×complete ULTRA cocktail inhibitor (Thermo ScientificTM, cat #78443) was then added to the washed cells. Cells were incubated with lysis buffer for 1 hour at 4° C., and then stored at -80° C. Enzyme-linked immunosorbent assays (ELISA) were performed to measure phosphorylated ERBB2 levels. […] The next day, plates were washed with PBS+0.05% Tween20 (PBST). 150 μl of 5% BSA blocking solution was added for 1 hour at room temperature, with shaking. Plates were washed with PBST. Cell lysates were thawed and 100 μl of lysate was added to the ELISA plate. The plates were incubated for 2 hours at room temperature, with shaking. ELISA plates were then washed with PBST and 100 μl of an HRP-labeled detection antibody that binds phosphorylated tyrosine (R&D Systems, cat #841913) was added to each well. Plates were incubated for 1 hour at room temperature, with shaking. Plates were then washed with PBST, and 100 μl TMB substrate solution (R&D Systems, cat #DY999) was added. Plate were incubated in the dark for 20 minutes at room temperature. 50 μl of Stop solution (R&D Systems, cat #DY994) (50 μl) was added to each well and mixed. […] The remaining kinase activity by calculated using the following formula: % Relative activity=100×([…]). The low and high control values (“LC” and “HC”) were generated from lysate from wells without cells or with cells treated with 0.1% DMSO, respectively.

phosphorylated EGFR (pEGFR), sequence (P00533 25-1210): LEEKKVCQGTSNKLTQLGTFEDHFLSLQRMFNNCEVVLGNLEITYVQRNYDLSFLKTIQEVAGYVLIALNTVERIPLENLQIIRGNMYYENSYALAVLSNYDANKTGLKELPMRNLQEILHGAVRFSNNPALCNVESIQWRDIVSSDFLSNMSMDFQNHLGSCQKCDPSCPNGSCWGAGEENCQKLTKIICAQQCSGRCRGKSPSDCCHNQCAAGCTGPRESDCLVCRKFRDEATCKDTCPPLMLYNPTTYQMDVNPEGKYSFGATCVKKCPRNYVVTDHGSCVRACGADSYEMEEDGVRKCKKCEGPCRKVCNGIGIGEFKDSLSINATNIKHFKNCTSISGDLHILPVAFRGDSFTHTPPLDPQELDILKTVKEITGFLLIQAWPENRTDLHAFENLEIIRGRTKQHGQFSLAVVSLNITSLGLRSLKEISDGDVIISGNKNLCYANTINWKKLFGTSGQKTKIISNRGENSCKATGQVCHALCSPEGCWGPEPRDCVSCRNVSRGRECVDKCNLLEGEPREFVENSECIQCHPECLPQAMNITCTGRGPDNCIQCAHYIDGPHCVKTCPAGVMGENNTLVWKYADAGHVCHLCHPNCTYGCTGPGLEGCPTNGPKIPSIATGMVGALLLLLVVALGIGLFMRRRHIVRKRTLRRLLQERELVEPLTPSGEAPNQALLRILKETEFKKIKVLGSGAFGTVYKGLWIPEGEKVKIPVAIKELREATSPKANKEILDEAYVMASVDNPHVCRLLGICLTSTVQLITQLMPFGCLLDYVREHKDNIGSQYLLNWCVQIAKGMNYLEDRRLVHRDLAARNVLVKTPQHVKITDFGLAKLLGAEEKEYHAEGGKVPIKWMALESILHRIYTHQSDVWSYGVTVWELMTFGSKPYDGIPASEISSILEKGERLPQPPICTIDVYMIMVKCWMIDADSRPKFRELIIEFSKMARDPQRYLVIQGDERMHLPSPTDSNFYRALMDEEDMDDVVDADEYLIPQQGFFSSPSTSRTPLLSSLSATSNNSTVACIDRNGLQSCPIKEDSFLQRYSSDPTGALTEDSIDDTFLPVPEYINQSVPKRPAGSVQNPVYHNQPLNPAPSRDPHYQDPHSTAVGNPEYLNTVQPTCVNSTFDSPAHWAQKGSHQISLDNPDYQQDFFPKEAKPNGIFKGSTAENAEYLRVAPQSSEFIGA

Row | pIC50 [1] | pIC50 [2] | SMILES
1 | 5.66 | 7.47 | Cc1cc(Nc2ncnc3cc4c(nc23)N2CCN(C(=O)/C=C/CN(C)C)C(CO4)C2)ccc1Oc1ccc2c(c1)ncn2C (stereo in doubt) [Compound 6, (E)-4-(dimethylamino)-1-((10S)-4-((3-methyl-4-((1-methyl-1H-benzo[d]imidazol-5-yl)oxy)phenyl)amino)-7,8,10,11-tetrahydro-9H-6,10-methanopyrimido[4′,5′:5,6]pyrido[3,2-b][1,4,7]oxadiazonin-9-yl)but-2-en-1-one]
2 | < 5.00 | 7.38 | Cc1cc(Nc2ncnc3cc4c(cc23)N2CCN(C(=O)/C=C/CN(C)C)C(CO4)C2)ccc1Oc1ccc2c(c1)ncn2C (stereo in doubt) [Compound 7, (E)-4-(dimethylamino)-1-((10S)-4-((3-methyl-4-((1-methyl-1H-benzo[d]imidazol-5-yl)oxy)phenyl)amino)-7,8,10,11-tetrahydro-9H-6,10-methano[1,4,7]oxadiazonino[3,2-g]quinazolin-9-yl)but-2-en-1-one]
3 | < 5.00 | 7.72 | Cc1cc(Nc2ncnc3cc4c(cc23)N2CCN(C(=O)/C=C/CN(C)C)C(CO4)C2)ccc1Oc1ccn2ncnc2c1 (stereo in doubt) [Compound 9, (E)-1-((10S)-4-((4-([1,2,4]triazolo[1,5-a]pyridin-7-yloxy)-3-methylphenyl)amino)-7,8,10,11-tetrahydro-9H-6,10-methano[1,4,7]oxadiazonino[3,2-g]quinazolin-9-yl)-4-(dimethylamino)but-2-en-1-one]
4 | 5.52 | 8.28 | Cc1cc(Nc2ncnc3cc4c(nc23)N2CCN(C(=O)/C=C/CN(C)C)C(CO4)C2)ccc1Oc1ccn2ncnc2c1 (stereo in doubt) [Compound 10, (E)-1-((10S)-4-((4-([1,2,4]triazolo[1,5-a]pyridin-7-yloxy)-3-methylphenyl)amino)-7,8,10,11-tetrahydro-9H-6,10-methanopyrimido[4′,5′:5,6]pyrido[3,2-b][1,4,7]oxadiazonin-9-yl)-4-(dimethylamino)but-2-en-1-one]
5 | < 5.00 | 6.99 | CC#CC(=O)N1CCN2CC1COc1cc3ncnc(Nc4ccc(Oc5ccc6c(c5)ncn6C)c(C)c4)c3cc12 (stereo in doubt) [Compound 11, 1-((10S)-4-((3-methyl-4-((1-methyl-1H-benzo[d]imidazol-5-yl)oxy)phenyl)amino)-7,8,10,11-tetrahydro-9H-6,10-methano[1,4,7]oxadiazonino[3,2-g]quinazolin-9-yl)but-2-yn-1-one]
6 | 5.15 | 7.37 | CC#CC(=O)N1CCN2CC1COc1cc3ncnc(Nc4ccc(Oc5ccn6ncnc6c5)c(C)c4)c3cc12 (stereo in doubt) [Compound 12, 1-((10S)-4-((4-([1,2,4]triazolo[1,5-a]pyridin-7-yloxy)-3-methylphenyl)amino)-7,8,10,11-tetrahydro-9H-6,10-methano[1,4,7]oxadiazonino[3,2-g]quinazolin-9-yl)but-2-yn-1-one]
7 | < 5.00 | 6.46 | Cc1cc(Nc2ncnc3cc4c(nc23)N2CCN(C(=O)/C=C/CN(C)C)C(CO4)C2)ccc1Oc1ccn2ncnc2c1 (stereo in doubt) [Compound 15, (E)-1-((10R)-4-((4-([1,2,4]triazolo[1,5-a]pyridin-7-yloxy)-3-methylphenyl)amino)-7,8,10,11-tetrahydro-9H-6,10-methanopyrimido[4′,5′:5,6]pyrido[3,2-b][1,4,7]oxadiazonin-9-yl)-4-(dimethylamino)but-2-en-1-one]
8 |  | 5.71 | C=CC(=O)N1CCN2C[C@@H]1COc1cc3ncnc(Nc4ccc(Cc5ccn6ncnc6c5)c(C)c4)c3nc12 [Compound 19, 1-((10R)-4-((4-([1,2,4]triazolo[1,5-a]pyridin-7-ylmethyl)-3-methylphenyl)amino)-7,8,10,11-tetrahydro-9H-6,10-methanopyrimido[4′,5′:5,6]pyrido[3,2-b][1,4,7]oxadiazonin-9-yl)prop-2-en-1-one]
9 |  | 7.92 | Cc1cc(Nc2ncnc3ccc(NC4=NC(C)(C)CO4)cc23)ccc1Oc1ccn2ncnc2c1 [Tucatinib, tucatinib, reference compound]
